This assay deals with T1, GST-tagged ROR gamma ligand binding domain (LBD) (Homo sapiens, UniProt P51449).
T1 construct: purchased Invitrogen
T1 sequence (P51449 269-508 limits assumed): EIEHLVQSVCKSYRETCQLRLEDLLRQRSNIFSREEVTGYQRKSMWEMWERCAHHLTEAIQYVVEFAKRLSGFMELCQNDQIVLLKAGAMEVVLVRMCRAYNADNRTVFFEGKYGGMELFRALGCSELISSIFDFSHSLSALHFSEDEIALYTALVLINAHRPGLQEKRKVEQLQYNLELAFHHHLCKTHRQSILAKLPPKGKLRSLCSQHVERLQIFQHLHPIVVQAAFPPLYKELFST
Put plainly: TR-FRET assay for ROR gamma (Lantha Screen, co-activator peptide recruitment). The format is biochemical. The note with it: for inhibition at 1 µM: read-out: % inhibition at 1 μM; for inhibition at 10 µM: read-out: % inhibition at 10 μM. (In TR-FRET formats the signal depends on donor and acceptor labels being close together.)

Where [1] appears, read: class symbols, from dose response curve, read-out: IC50 value.
Setting [2] is: compound concentration 1 μM, TR-FRET ratio 520/495, percent of control.
Setting [3] is: compound concentration 10 μM, TR-FRET ratio 520/495, percent of control.

pIC50: −log10 of the molar value. Like-named read-outs stand apart in the source and are kept apart here. A value given as a limit tells only on which side of the number the result lay.

We go through 30 molecules from patent US9682977B2, “Bicyclic heteroaryl indole analogues useful as ROR gamma modulators” (Glenmark Pharmaceuticals S.A., priority 2013, dated 2017).

Regarding `O=C(O)c1ccc(-n2cc(C(=O)c3c(Cl)cccc3Cl)c3c(F)cccc32)c(F)c1` [Example 22, 4-[3-(2,6-Dichlorobenzoyl)-4-fluoro-1H-indol-1-yl]-3-fluorobenzoic acid], the pIC50 (as a rule, the negative decadic logarithm of the IC50, by convention in mol/L) was greater than 7.30; the inhibition (usually how much of the control response was suppressed) at 1 µM was 96.8%; the inhibition at 10 µM turned out to be 99.3%.

In the case of `O=C(O)c1ccc(-n2nc(C(=O)c3c(Cl)cccc3C(F)(F)F)c3cccnc32)cc1` [Example 38, 4-(3-{[2-Chloro-6-(trifluoromethyl)phenyl]carbonyl}-1H-pyrazolo[3,4-b]pyridin-1-yl)benzoic acid], the pIC50 under setting [1] was greater than 7.30. The inhibition at 1 µM under setting [2] was 96.8%. Besides, the inhibition at 10 µM under setting [3] turned out to be 93.5%.

With `CCCCOC(=O)c1ccc(-n2cc(C(=O)c3c(Cl)cccc3Cl)c3cccc(F)c32)c(F)c1` [Example 44, Butyl 4-[3-(2,6-dichloro-benzoyl)-7-fluoro-1H-indol-1-yl]-3-fluorobenzoate], the inhibition at 1 µM is 3.55% and the inhibition at 10 µM is 2.25%.

For `O=C(O)c1ccc(-n2nc(Oc3c(Cl)cccc3C3CC3)c3ccccc32)c(F)c1` [Example 13, 4-[3-(2-Chloro-6-cyclopropylphenoxy)-1H-indazol-1-yl]-3-fluorobenzoic acid], under setting [1], the negative logarithm of the IC50 (pIC50) was greater than 7.30. The inhibition at 1 µM under setting [2] is 91.7%. In addition, the inhibition at 10 µM under setting [3] came to 91.7%.

Consider `O=C(O)c1ccc(-n2nc(Oc3c(Cl)cccc3Cl)c3cccc(F)c32)c(F)c1` [Example 11, 4-[3-(2,6-Dichlorophenoxy)-7-fluoro-1H-indazol-1-yl]-3-fluorobenzoic acid], for which the pIC50 under setting [1] was greater than 7.30. In addition, the inhibition at 1 µM under setting [2] was 98.1%. Besides, the inhibition at 10 µM under setting [3] worked out at 97.8%.

For the molecule `O=C(O)c1ccc(-n2nc(C(=O)c3ccccc3)c3ccccc32)cc1` [Example 28, 4-[3-(Phenylcarbonyl)-1H-indazol-1-yl]benzoic acid], the inhibition at 1 µM under setting [2] stood at 30.2%. Under setting [3], the inhibition at 10 µM came to 62.9%.

Consider `O=C(O)c1ccc(-n2nc(C(=O)c3c(Cl)cccc3Cl)c3cccc(F)c32)cc1` [Example 32, 4-{3-[(2,6-Dichlorophenyl)carbonyl]-7-fluoro-1H-indazol-1-yl}benzoic acid], for which the negative-log IC50 (pIC50) under setting [1] is greater than 7.30. Also, under setting [2], the inhibition at 1 µM was determined as 94.6%. The inhibition at 10 µM under setting [3] is 90.4%.

Turning to `CCCOC(=O)c1ccc(-n2cc(C(=O)c3c(Cl)cccc3Cl)c3ccccc32)c(F)c1` [Example 40, Propyl 4-{3-[(2,6-dichlorophenyl)carbonyl]-1H-indol-1-yl}-3-fluorobenzoate], the inhibition at 1 µM came to 9.11%.

In the case of `Cc1ccccc1Oc1nn(-c2ccc(C(=O)O)cc2)c2ccccc12` [Example 1, 4-[3-(2-Methylphenoxy)-1H-indazol-1-yl]benzoic acid], the pIC50 under setting [1] is greater than 7.30. Further, under setting [2], the inhibition at 1 µM was 90%. The inhibition at 10 µM under setting [3] was determined as 96.3%.

Turning to `O=C(O)c1ccc(-n2nc(C(=O)c3c(Cl)cccc3Cl)c3cccnc32)cc1` [Example 36, 4-{3-[(2,6-Dichlorophenyl)carbonyl]-1H-pyrazolo[3,4-b]pyridin-1-yl}benzoic acid], the negative-log IC50 (pIC50) under setting [1] was greater than 7.30. Besides, under setting [2], the inhibition at 1 µM was 95.7%. Also, the inhibition at 10 µM under setting [3] worked out at 96.4%.

As for `O=C(O)c1ccc(-n2nc(C(=O)c3c(Cl)cccc3C(F)(F)F)c3ccccc32)c(F)c1` [Example 33, 4-(3-{[2-Chloro-6-(trifluoromethyl)phenyl]carbonyl}-1H-indazol-1-yl)-3-fluorobenzoic acid], under setting [1], the pIC50 is greater than 7.30. In addition, the inhibition at 1 µM under setting [2] came out at 98.1%. For the same molecule, the inhibition at 10 µM under setting [3] stood at 94.1%.

For `O=C(O)c1ccc(-n2cc(C(=O)c3c(Cl)cccc3Cl)c3cccnc32)c(F)c1` [Example 27, 4-[3-(2,6-Dichlorobenzoyl)-1H-pyrrolo[2,3-b]pyridin-1-yl]-3-fluorobenzoic acid], under setting [1], the pIC50 is greater than 7.30. Also, the inhibition at 1 µM under setting [2] was found to be 95.6%. Further, the inhibition at 10 µM under setting [3] came to 97.9%.

As for `O=C(O)c1ccc(-n2nc(C(=O)c3ccccc3)c3ccccc32)c(F)c1` [Example 30, 4-(3-Benzoyl-1H-indazol-1-yl)-3-fluorobenzoic acid], under setting [2], the inhibition at 1 µM stood at 47.1%. The inhibition at 10 µM under setting [3] came out at 88.9%.

As to `O=C(O)c1ccc(-n2nc(Oc3c(Cl)cccc3Cl)c3ccccc32)c(F)c1` [Example 6, 4-[3-(2,6-Dichlorophenoxy)-1H-indazol-1-yl]-3-fluorobenzoic acid], under setting [1], the pIC50 was greater than 7.30. For the same molecule, the inhibition at 1 µM under setting [2] worked out at 99.2%. Further, under setting [3], the inhibition at 10 µM is 99.6%.

Take `O=C(O)c1ccc(-n2nc(Oc3ccccc3C(F)(F)F)c3ccccc32)cc1` [Example 2, 4-{3-[2-(Trifluoromethyl)phenoxy]-1H-indazol-1-yl}benzoic acid]: under setting [1], the negative logarithm of the IC50 (pIC50) is greater than 7.30. In addition, the inhibition at 1 µM under setting [2] was 96.9%. The inhibition at 10 µM under setting [3] was found to be 98.4%.

As for `O=C(O)c1ccc(-n2nc(Oc3ccccc3)c3ccccc32)cc1` [Example 4, 4-(3-Phenoxy-1H-indazol-1-yl)benzoic acid], the inhibition at 1 µM under setting [2] was found to be 31.2%. Also, the inhibition at 10 µM under setting [3] stood at 37%.

In the case of `O=C(O)c1ccc(-n2nc(C(=O)c3c(Cl)cccc3C(F)(F)F)c3ccccc32)cc1` [Example 34, 4-(3-{[2-Chloro-6-(trifluoromethyl)phenyl]carbonyl}-1H-indazol-1-yl)-benzoic acid], the pIC50 under setting [1] was greater than 7.30. Under setting [2], the inhibition at 1 µM came out at 96.9%. In addition, under setting [3], the inhibition at 10 µM was 92%.

`Cc1cccc(Oc2nn(-c3ccc(C(=O)O)cc3)c3ccccc23)c1` [Example 3, 4-[3-(3-Methylphenoxy)-1H-indazol-1-yl]benzoic acid]: under setting [2], the inhibition at 1 µM stood at 23.4%. For the same molecule, the inhibition at 10 µM under setting [3] was found to be 34.6%.

In the case of `CCOC(=O)c1ccc(-n2cc(C(=O)c3c(Cl)cccc3Cl)c3cccc(F)c32)c(F)c1` [Example 42, Ethyl 4-[3-(2,6-dichloro-benzoyl)-7-fluoro-1H-indol-1-yl]-3-fluorobenzoate], the inhibition at 1 µM turned out to be 0.61%.

For `O=C(O)c1ccc(-n2cc(C(=O)c3ccccc3Cl)c3ccccc32)cc1` [Example 17, 4-{3-[(2-Chlorophenyl)carbonyl]-1H-indol-1-yl}benzoic acid], the pIC50 is 7.00 to 7.30, the inhibition at 1 µM came out at 84.9% and the inhibition at 10 µM was 96%.

On to `O=C(O)c1ccc(-n2nc(C(=O)c3c(Cl)cccc3C3CC3)c3cccnc32)cc1` [Example 37, 4-{3-[(2-Chloro-6-cyclopropylphenyl)carbonyl]-1H-pyrazolo[3,4-b]pyridin-1-yl}benzoic acid], for which the negative logarithm of the IC50 (pIC50) under setting [1] was greater than 7.30. Moreover, the inhibition at 1 µM under setting [2] is 97.6%. For the same molecule, the inhibition at 10 µM under setting [3] is 94.6%.

Regarding `O=C(O)c1ccc(-n2nc(Oc3c(Cl)cccc3C(F)F)c3ccccc32)c(F)c1` [Example 10, 4-{3-[2-Chloro-6-(difluoromethyl)phenoxy]-1H-indazol-1-yl}-3-fluorobenzoic acid], the pIC50 under setting [1] was greater than 7.30. Further, under setting [2], the inhibition at 1 µM came out at 100%. Moreover, under setting [3], the inhibition at 10 µM came out at 100%.

As for `CCOC(=O)c1ccc(-n2nc(Oc3c(Cl)cccc3C(F)(F)F)c3ccccc32)c(F)c1` [Example 45, Ethyl 4-{3-[2-chloro-6-(trifluoromethyl)phenoxy]-1H-indazol-1-yl}-3-fluorobenzoate], under setting [1], the negative-log IC50 (pIC50) is 7.00 to 7.30. Under setting [2], the inhibition at 1 µM is 97.9%. For the same molecule, the inhibition at 10 µM under setting [3] stood at 93.7%.

For `O=C(O)c1ccc(-n2nc(Oc3ccccc3C(F)(F)F)c3ccccc32)c(F)c1` [Example 8, 3-Fluoro-4-{3-[2-(trifluoromethyl)phenoxy]-1H-indazol-1-yl}benzoic acid], the negative-log IC50 (pIC50) under setting [1] was greater than 7.30. For the same molecule, the inhibition at 1 µM under setting [2] was determined as 96.4%. The inhibition at 10 µM under setting [3] turned out to be 98.2%.

As to `CCOC(=O)c1ccc(-n2cc(C(=O)c3c(Cl)cccc3Cl)c3ccccc32)c(F)c1` [Example 39, Ethyl 4-{3-[(2,6-dichlorophenyl)carbonyl]-1H-indol-1-yl}-3-fluorobenzoate], the inhibition at 1 µM is 15.4% and the inhibition at 10 µM was 25%.

As for `CC(C)OC(=O)c1ccc(-n2nc(Oc3c(Cl)cccc3C(F)(F)F)c3ccccc32)c(F)c1` [Example 48, Isopropyl 4-{3-[2-chloro-6-(trifluoromethyl)phenoxy]-1H-indazol-1-yl}-3-fluorobenzoate], the inhibition at 1 µM under setting [2] was determined as 26.3%. For the same molecule, the inhibition at 10 µM under setting [3] came to 84.6%.

Regarding `O=C(O)c1ccc(-n2nc(C(=O)c3c(Cl)cccc3Cl)c3ccccc32)c(F)c1` [Example 31, 4-[3-(2,6-Dichlorobenzoyl)-1H-indazol-1-yl]-3-fluorobenzoic acid], the negative logarithm of the IC50 (pIC50) under setting [1] was greater than 7.30. The inhibition at 1 µM under setting [2] is 96.6%. Besides, under setting [3], the inhibition at 10 µM came to 91.6%.

Consider `O=C(O)c1ccc(-n2cc(C(=O)c3c(Cl)cccc3Cl)c3cc(F)ccc32)c(F)c1` [Example 23, 4-[3-(2,6-Dichlorobenzoyl)-5-fluoro-1H-indol-1-yl]-3-fluorobenzoic acid], for which the negative logarithm of the IC50 (pIC50) under setting [1] was greater than 7.30. Besides, under setting [2], the inhibition at 1 µM came to 98.2%. In addition, under setting [3], the inhibition at 10 µM was 96.7%.

For the molecule `O=C(O)c1ccc(-n2cc(C(=O)c3ccccc3F)c3ccccc32)cc1` [Example 15, 4-{3-[(2-Fluorophenyl)carbonyl]-1H-indol-1-yl}benzoic acid], the pIC50 under setting [1] was less than 7.00. Further, the inhibition at 1 µM under setting [2] came to 76.4%. Further, the inhibition at 10 µM under setting [3] is 95.8%.

On to `O=C(O)c1ccc(-n2nc(C(=O)c3c(Cl)cccc3C3CC3)c3cccc(F)c32)cc1` [Example 35, 4-{3-[(2-Chloro-6-cyclopropylphenyl)carbonyl]-7-fluoro-1H-indazol-1-yl}benzoic acid], for which, under setting [1], the pIC50 was greater than 7.30. Besides, the inhibition at 1 µM under setting [2] came out at 92.3%. The inhibition at 10 µM under setting [3] is 89.2%.
